# From patent US11191762B2, “Alkyl substituted triazole compounds as agonists of the APJ Receptor” (priority 2016, dated 2021)
# Molecular target: human APJ receptor (Homo sapiens (Human), UniProt P35414)
# Assay: biochemical
# Assay type: biochemical
# Conditions: not given
# Procedure, shortened: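 [35S]GTPγS binding to membranes from CHO cells stably expressing human APJ, captured on WGA PS beads (5 μg/well). Buffer: 20 mM HEPES pH 7.5, 5 mM MgCl2, 100 mM NaCl, 0.1% BSA, with 3 μM GDP and 0.1 nM [35S]GTPγS final; compounds tested as 22-point 2-fold dilutions.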
# human APJ receptor, sequence (P35414 whole entry): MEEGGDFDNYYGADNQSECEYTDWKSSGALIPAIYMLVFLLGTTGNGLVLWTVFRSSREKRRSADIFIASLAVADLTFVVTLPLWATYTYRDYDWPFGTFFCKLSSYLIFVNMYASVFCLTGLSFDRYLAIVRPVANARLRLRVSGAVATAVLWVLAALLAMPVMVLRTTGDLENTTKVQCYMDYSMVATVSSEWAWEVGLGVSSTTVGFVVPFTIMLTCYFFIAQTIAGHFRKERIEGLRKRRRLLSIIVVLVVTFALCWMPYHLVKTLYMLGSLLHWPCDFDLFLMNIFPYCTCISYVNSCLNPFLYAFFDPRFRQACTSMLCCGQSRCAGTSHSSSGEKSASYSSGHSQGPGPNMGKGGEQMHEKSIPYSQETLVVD
row,Molecule,EC50 [µM]
1,[2H]C([2H])([2H])OCc1nnc(NS(=O)(=O)[C@@H](C)[C@@H](OC(C)C)c2ncc(C)cn2)n1-c1c(OC)cccc1OC [Example 152.0],0.0061

# Same assay, conditions: [35S]GTPγS binding, membranes from CHO cells stably expressing human APJ receptor; read-out: Activity hAPJ SPA EC50 IP
row,Molecule,EC50 [µM]
1,"COCc1nnc(NS(=O)(=O)[C@@H](C)[C@H](OC)c2ncc(Cl)cn2)n1C1(c2cccnc2)CC1 [Example 140.0, (1R,2S)-1-(5-chloropyrimidin-2-yl)-1-methoxy-N-(5-(methoxymethyl)-4-(1-(pyridin-3-yl)cyclopropyl)-4H-1,2,4-triazol-3-yl)propane-2-sulfonamide]",0.029
2,"COc1cccc(OC)c1-n1c(Cc2ccncc2)nnc1NS(=O)(=O)[C@@H](C)[C@H](C)c1ncc(Cl)cn1 [Example 141.0, (2S,3R)-3-(5-Chloro-2-pyrimidinyl)-N-(4-(2,6-dimethoxyphenyl)-5-(4-pyridinylmethyl)-4H-1,2,4-triazol-3-yl)-2-butanesulfonamide]",0.1
3,COCc1nnc(NS(=O)(=O)[C@@H](C)[C@H](OC)c2ncc(Cl)cn2)n1C(C)C [Example 144.0],1.2
4,COCc1nnc(NS(=O)(=O)[C@@H](C)[C@H](OC)c2ncc(Cl)cn2)n1C1(COC)CC1 [Example 145.0],0.24
5,COCCc1nnc(NS(=O)(=O)[C@@H](C)[C@H](OC)c2ncc(Cl)cn2)n1C(COC)COC [Example 146.0],0.25
6,CCC(CC)n1c(COC)nnc1NS(=O)(=O)[C@@H](C)[C@H](OC)c1ncc(Cl)cn1 [Example 147.0],0.17
7,COCc1nnc(NS(=O)(=O)[C@@H](C)[C@@H](OC(C)C)c2ccc(C)cn2)n1-c1c(OC)cccc1OC [Example 155.0],0.012
8,COCCn1c(COC)nnc1NS(=O)(=O)[C@@H](C)[C@H](OC)c1ncc(Cl)cn1 [Example 156.0],0.52
9,COCc1nnc(NS(=O)(=O)[C@@H](C)[C@H](OC)c2ncc(Cl)cn2)n1-c1c(Cl)cccc1Cl [Example 157.0],> 12.5
10,COc1ccc(Cl)c(-n2c(COC(F)F)nnc2NS(=O)(=O)[C@@H](C)[C@H](OC)c2ncc(Cl)cn2)c1 [Example 160.0],0.021
11,COCc1nnc(NS(=O)(=O)[C@@H](C)[C@H](C)c2ncc(Cl)cn2)n1-c1cc(OC)ccc1Cl [Example 162.0],0.024
12,COCc1nnc(NS(=O)(=O)[C@@H](C)[C@@H](OC(C)C)c2ncc(C)cn2)n1-c1cc(OC)ccc1Cl [Example 163.0],0.04
13,CCCCc1nnc(NS(=O)(=O)[C@@H](C)[C@H](C)c2ncc(Cl)cn2)n1-c1c(OC)cccc1OC [Example 164.0],0.00084
14,CCCCc1nnc(NS(=O)(=O)[C@@H](C)[C@H](OC)c2ncc(C)cn2)n1-c1c(OC)cccc1OC [Example 175.0],0.0017
15,CCCCc1nnc(NS(=O)(=O)[C@@H](C)[C@H](C)c2ncc(C)cn2)n1-c1c(OC)cccc1OC [Example 176.0],0.0019
16,"(1R,2S)-1-(5-chloro-2-pyrimidinyl)-N-(5-((1R)-1-cyclopropylethyl)-4-(4,6-dimethoxy-5-pyrimidinyl)-4H-1,2,4-triazol-3-yl)-1-methoxy-2-propanesulfonamide and (1R,2S)-1-(5-chloro-2-pyrimidinyl)-N-(5-((1S)-1-cyclopropylethyl)-4-(4,6-dimethoxy-5-pyrimidinyl)-4H-1,2,4-triazol-3-yl)-1-methoxy-2-propanesulfonamide [Example 167.0]",0.11
17,"(1R,2S)-1-(5-chloropyrimidin-2-yl)-1-methoxy-N-(4-(1-methylaclopropyl)-5-(((R)-tetrahydrofurcan-2-yl)methyl)-4H-l,2,4-triazol-3-yl)propane-2-sulfonainide or (1R,2S)-1-(5-chloroprimidin-2-yl)-1-methoxy-N-(4-(1-methylcyclopropyl)-5-(((S)-tetrahydrofuran-2-yl)methyl)-4H-l,2.4-triazol-3-yl)propane-2-sulfonamide [Example 56.0]",0.42
18,"(1R.2S)-1-(5-chloropyrimidin-2-yl)-1-methoxy-N-(4-(1-methylcyclopropyl)-5-(((R)-tetrahydrofuran-2-yl)methyl)-4H-1,2,4-triazol-3-yl)propane-2-sulfonamide or (1R,2S)-1-(5-chloropyrimidin-2-yl)-1-methoxy-N-(4-(1-methylcyclopropyl)-5-(((S)-tetrahydrofuran-2-yl)methyl)-4H-1,2,4-triazol-3-yl)propane-2-sulfonamide [Example 57.0]",0.042
19,"(S)-N-(4-(2,6-dimethoxyphenyl)-5-(methoxymethyl)-4H-1,2,4-triazol-3-yl)-1-(5-fluoropyrimidin-2-yl)piperidine-3-sulfonamide or (R)-N-(4-(2,6-dimethoxyphenyl)-5-(methoxymethyl)-4H-1,2,4-triazol-3-yl)-1-(5-fluoropyrimidin-2-yl)piperidine-3-sulfonamide [Example 77.0]",0.176
20,"(S)-N-(4-(2,6-dimethoxyphenyl)-5-(methoxymethyl)-4H-1,2,4-triazol-3-yl)-l-(5-fluoropyrimidin-2-yl)piperidine-3-sulfonamide or (R)-N-(4-(2,6-dimethoxyphenyl)-5-(methoxymethyl)-4H-1,2,4-triazol-3-yl)-l-(5-fluoropyrimidin-2-yl)piperidine-3-sulfonamide [Example 78.0]",0.615

# Same assay, conditions: read-out: Activity hAPJ SPA EC50 IP
row,Molecule,EC50 [µM]
1,COCCOCc1nnc(NS(=O)(=O)[C@@H](C)[C@H](C)c2ncc(Cl)cn2)n1-c1c(OC)cccc1OC [Example 151.0],0.024
2,COCc1nnc(NS(=O)(=O)[C@@H](C)[C@@H](OC(C)C)c2ncc(F)cn2)n1-c1c(OC)cccc1OC [Example 154.0],0.0066
3,COc1cccc(OC)c1-n1c(COC(C)C)nnc1NS(=O)(=O)[C@@H](C)[C@H](C)c1ncc(Cl)cn1 [Example 161.0],0.0022
4,CCCCc1nnc(NS(=O)(=O)[C@@H](C)[C@H](OC)c2ncc(Cl)cn2)n1-c1c(OC)cccc1OC [Example 174.0],0.0003

# Molecular target: human APJ-AT1R (angiotensin Type 1) double stable CHO cell line (Homo sapiens (Human), UniProt P35414)
# Assay: IP1 accumulation (TR-FRET), AngII cooperativity, APJ-AT1R double stable cells
# Assay type: cell-based
# Conditions: APJ small molecule agonists in the presence of AngII
# Description: Single and double stable recombinant cell lines were generated for human APJ and the AT1R receptor in CHO K1 cells tagged either with FLAG or hemagglutinin (HA) tag. Briefly, the CHO-K1 APJ/AT1R cells were seeded in culture medium of DMEM-F12 and 10% FBS at a density of 15 k/well in a 96 well plate overnight. The next day, the culture medium was replaced with medium containing no serum for 4 h. The compound AngII at a range of concentrations (1 pM-10 μM) with or without different concentrations of APJ agonists were diluted in stimulation buffer and added to the cell plate. The plate was sealed and incubated for 1 h. This was followed by addition of IP-d2 conjugate followed by europium cryptate antibody conjugate into the wells. The plate was sealed, followed with incubation for 2 h at RT. Time-resolved fluorescence resonance energy (TR-FRET) at 620 nm and 665 nm was measured after 2 h with an Envision reader. The signal ratios and delta F were calculated and the amount of IP1 produced was inversely proportional to the TR-FRET ratio, 665/620 nm.
# human APJ-AT1R (angiotensin Type 1) double stable CHO cell line, sequence (P35414 whole entry): as above
row,Molecule,effect of losartan on APJ agonist induced cooperativity
1,CCCCc1nc(Cl)c(CO)n1Cc1ccc(-c2ccccc2-c2nn[nH]n2)cc1 [losartan],relieved this cooperativity

# System: heart failure rats
# Assay: Cardiac function with ACE inhibitor captopril and APJ agonist in heart failure rats in vivo
# Design: species or system rat
# Conditions: captopril alone, acute settings
# Source text: The interaction between […] (ACE2) and Apelin biology is complicated. To investigate the interaction between the Apelin-APJ and ACE signalling pathways, we examined the improvement in cardiac function with APJ small molecule agonists in the presence of ACE inhibitor captopril in heart failure rats in vivo. […] However, in the presence of an APJ agonist, there was a shift in potency to the left with marked improvement in contractility and ejection fraction without changes in heart rate. These findings provide a new reference for the understanding of the regulation of ACE2 for the renin angiotensin aldosterone system (RAAS), independent of AT1R signaling and offer new potential drug targets for the treatment of diseases such as hypertension and heart failure. This work clearly establishes that combination of an agonist of the APJ receptor with an ARB such as losartan and/or with an ACE inhibitor such as captopril which may play an important role in providing greater efficacy in treating heart failure patients, for example in improving contractility and ejection fraction without changing the heart rate.
row,Molecule,contractility or ejection fraction
1,"C[C@H](CS)C(=O)N1CCC[C@H]1C(=O)O [Captopril, captopril]",does not show a marked improvement in contractility or ejection fraction
